Where “and” joins values, the source holds several entries; their conditions need not be identical. Equal values may be shown once. Read-outs that look alike come from different tables or passages of the source.
What was measured:
HCMV = assay: CMV antiviral assay, cell culture based ELISA in human foreskin fibroblast cells; parameters: species or system human cytomegalovirus (HCMV)
Method: Compounds are tested for direct antiviral activity against HCMV using a cell culture based assay. An ELISA (enzyme linked immunosorbant assay) format is used as described in W. A. Tatarowicz, N. S. Lurain and K. D. Thompson, J. Virol. Meth., 35:207-215 (1991). Human foreskin fibroblast cells are infected with HCMV at a multiplicity of 0.025 plaque forming units per microtiter plate well for a period of 90 minutes. The virus inocula is removed and a suspension of test compound prepared in tissue culture media is added for a period of 4 days. The growth media is aspirated and replaced with 95% ethanol to allow fixation of virus infected cultures. The ethanol is removed and the wells are washed twice with saline. A solution of 2% dry fat milk, 1% bovine sera albumin prepared in saline is added to wells to allow for non-specific binding of protein material to plastic surfaces for 1 hr. Murine monoclonal antibody prepared in saline directed against the late (65 KD) matrix protein of HCMV is added to test wells for 1 hr. The wells are washed twice and antibody, conjugated with the enzyme horse radish peroxidase, with specificity against murine IgG is added to test wells for 1 hr. Test wells are washed three times with saline. A solution of o-phenylene diamine, a substrate for horse radish peroxidase is added for 15 minutes at which time enzymatic conversion occurs indicating reactivity of the enzyme with its substrate. This conversion is evident as a color reaction which was spectrophoretically monitored at 490 nm. The intensity of the color indirectly reflects the presence of antibody directed against the viral 65 KD matrix antigen. The presence of the viral matrix antigen refects the amount of HCMV replication. Thus, test wells, in which little viral replication has occurred, would have little or no antibody binding and are present with low levels of color. Non-infected wells serve as the assay background control.

[1] = antiviral, Table 4, read-out: IC50 (AV)
[2] = Human betaherpesvirus 5, Fibroblast, antiviral, Table 4, read-out: IC50 (AV)
[3] = Human betaherpesvirus 5, Fibroblast, read-out: CMV Antiviral Assay IC50 (AV), Table 12
[4] = read-out: CMV Antiviral Assay IC50 (AV), Table 12

CC(C)(C)[Si](C)(C)c1cc(Cl)c2cccnc2c1O [Example 41, 5-Chloro-7-[(1,1-dimethylethyl)dimethylsilyl]-8-quinolinol]
% Inh −AV (HCMV; Conc 1.00e+001 uM, Table 4): 92.0% | % Inh −AV (HCMV; Conc 2.00e+000 uM, Table 4): 56.0% | % Inh −AV (HCMV; Conc 2.00e+001 uM, Table 4): 86.0% and 76.0% | % Inh −AV (HCMV; Conc 4.00e+000 uM, Table 4): 65.0% and 70.0% | % Inh −AV (HCMV; Conc 4.00e+001 uM, Table 4): 99.0% and 76.0% | % Inh −AV (HCMV; Conc 5.00e+001 uM, Table 4): 78.0% | % Inh −AV (HCMV; Conc 8.00e+000 uM, Table 4): 78.0% | IC50 (HCMV; [1]): 3.8 µM | melting point: 107 to 108 °C

CC(C)[Si](c1cc(Cl)c2cccnc2c1O)(C(C)C)C(C)C [Example 42]
% Inh −AV (HCMV; Conc 2.00e+001 uM, Table 4): 88.0% and 99.0% | % Inh −AV (HCMV; Conc 4.00e+000 uM, Table 4): 51.0% and 89.0% | % Inh −AV (HCMV; Conc 4.00e+001 uM, Table 4): 92.0% and 99.0% | % Inh −AV (HCMV; Conc 8.00e−001 uM, Table 4): 0.0% | IC50 (HCMV; [1]): 5.2 µM | melting point: 107 to 108 °C

CC(C)(C)[Si](c1ccccc1)(c1ccccc1)c1cc(Cl)c2cccnc2c1O [Example 43, 5-Chloro-7-[(1,1,-dimethylethyl)diphenylsilyl]-8-quinolinol]
% Inh −AV (HCMV; Conc 1.00e+001 uM, Table 4): 99.0% | % Inh −AV (HCMV; Conc 1.25e+000 uM, Table 4): 87.0% | % Inh −AV (HCMV; Conc 2.00e+001 uM, Table 4): 90.0% | % Inh −AV (HCMV; Conc 2.50e+000 uM, Table 4): 99.0% | % Inh −AV (HCMV; Conc 4.00e+000 uM, Table 4): 77.0% and 88.0% | % Inh −AV (HCMV; Conc 4.00e+001 uM, Table 4): 85.0% and 81.0% | % Inh −AV (HCMV; Conc 4.00e−001 uM, Table 4): 50.0% | % Inh −AV (HCMV; Conc 5.00e+000 uM, Table 4): 99.0% | % Inh −AV (HCMV; Conc 8.00e−001 uM, Table 4): 65.0% and 43.0% | IC50 (HCMV; [1]): 0.12 µM and 0.44 µM | melting point: 133 to 139 °C

C[Si](C)(C)c1cc(Cl)c2cccnc2c1O [Example 44, 5-Chloro-7-(trimethylsilyl)-8-quinolinol]
% Inh −AV (HCMV; Conc 4.00e+000 uM, Table 4): 65.0% and 59.0% | IC50 (HCMV; [2]): 2.7 µM | melting point: 109 to 111 °C

C[Si](C)(c1ccccc1)c1cc(Cl)c2cccnc2c1O [Example 45, 5-Chloro-7-(dimethylphenylsilyl)-8-quinolinol]
% Inh −AV (HCMV; Conc 2.00e+001 uM, Table 4): 83.0% | % Inh −AV (HCMV; Conc 4.00e+000 uM, Table 4): 75.0% | % Inh −AV (HCMV; Conc 4.00e+001 uM, Table 4): 89.0% | % Inh −AV (HCMV; Conc 8.00e−001 uM, Table 4): 39.0% | IC50 (HCMV; [2]): 1.2 µM | melting point: 101 to 103 °C

N#CCNC(=O)c1ccc2cccnc2c1O [drawing 130]
IC50 (HCMV; Human betaherpesvirus 5, Fibroblast, read-out: CMV Antiviral Assay IC50 (AV), Table 7): 3 µM

O=C(Nc1nc2ccc(Cl)cc2s1)c1ccc2cccnc2c1O [drawing 325]
IC50 (HCMV; [3]): 25.5 µM

Cc1ccc2c(Cl)cc(S(=O)(=O)NCCCN3CCOCC3)c(O)c2n1 [drawing 326]
IC50 (HCMV; [3]): 2.5 µM | IC50 (HCMV; [4]): 3.6 µM

Cc1ccc2c(Cl)cc(S(=O)(=O)NCc3ccccn3)c(O)c2n1 [drawing 327]
IC50 (HCMV; [3]): 14.4 µM | IC50 (HCMV; [4]): 14.1 µM and 9.4 µM

Cc1ccc2c(Cl)cc(S(=O)(=O)NCCCCc3ccccc3)c(O)c2n1 [drawing 328]
IC50 (HCMV; [3]): 3.5 µM

Cc1ccc2c(Cl)cc(S(=O)(=O)NCCc3ccccn3)c(O)c2n1 [drawing 329]
IC50 (HCMV; [3]): 14.6 µM

N#Cc1ccc(NC(=O)c2ccc3cccnc3c2O)cc1 [drawing 331]
IC50 (HCMV; Human betaherpesvirus 5, Fibroblast, Table 12, read-out: CMV Antiviral Assay IC50 (AV)): 3.9 µM
